Columns and labels:
[1] = Antioxidant activity assessed as DPPH radical scavenging activity; format: functional
[2] = Antioxidant activity assessed as nitric oxide radical scavenging activity; format: functional

Row | Structure (SMILES) | IC50 [1] [µM] | IC50 [2] [µM]
1 | Fc1ccc2c(c1)CCC(c1nnc(-c3cnccn3)o1)O2 (stereo unspecified) | 73.4 | 87
2 | Fc1ccc2c(c1)CCC(c1nnc(-c3cn(Cc4c(F)cccc4F)nn3)o1)O2 (stereo unspecified) | 23.1 | 88
3 | Fc1ccc2c(c1)CCC(c1nnc(-c3cc(F)c(F)c(F)c3F)o1)O2 (stereo unspecified) | 29 | 85.9
4 | O=c1cc(-c2nnc(C3CCc4cc(F)ccc4O3)o2)oc2ccc(F)cc12 (stereo unspecified) | 34.9 | 73.9
5 | O=C1O[C@H]([C@@H](O)CO)C(O)=C1O [ASCORBIC ACID] | 44.2 | 42.6
6 | COc1cc(-c2nnc(C3CCc4cc(F)ccc4O3)o2)cc(OC)c1OC (stereo unspecified) | 43.2 | 87
7 | Fc1ccc2c(c1)CCC(c1nnc(C3CCc4cc(F)ccc4O3)o1)O2 (stereo unspecified) | 29 | 87

The next lines start with the values.

Row | IC50 [1] [µM] | IC50 [2] [µM] | Structure (SMILES)
8 | 34.9 | 89.1 | Nc1ccc(-c2nnc(C3CCc4cc(F)ccc4O3)o2)cc1 (stereo unspecified)
9 | 40.8 | 88 | Fc1ccc2c(c1)CCC(c1nnc(-c3ccccc3Cl)o1)O2 (stereo unspecified)
10 | 17.2 | 85.9 | Fc1ccc2c(c1)CCC(c1nnc(-c3ccc(Cl)cc3)o1)O2 (stereo unspecified)
11 | 23.1 | 84.8 | Fc1ccc2c(c1)CCC(c1nnc(-c3cccc(Cl)c3)o1)O2 (stereo unspecified)
12 | 28.7 | 84.8 | O=[N+]([O-])c1ccc(-c2nnc(C3CCc4cc(F)ccc4O3)o2)cc1 (stereo unspecified)
13 | 28.7 | 85.9 | Fc1ccc2c(c1)CCC(c1nnc(-c3ccccc3)o1)O2 (stereo unspecified)

From ChEMBL document CHEMBL4627369, “Synthesis of novel of 2, 5-disubstituted 1, 3, 4- oxadiazole derivatives and their in vitro anti-inflammatory, anti-oxidant evaluation, and molecular docking study” (Bioorg Med Chem Lett, 2020)
